# Data from ChEMBL document CHEMBL1201862, “PubChem BioAssay data set” (2004).
# The source made the active and inactive calls.
# What was measured:
# Genome polyprotein = Genome polyprotein (dengue virus type 2, UniProt P29990); experiment: flavivirus cap methylation enzyme inhibition – biochemical, confirmation dose response, primary screen (AID 588689); type: functional
# fMet-Leu-Phe receptor = fMet-Leu-Phe receptor (Homo sapiens, UniProt P21462); experiment: formyl peptide receptor binders – dose response (AID 519); type: functional
# [1] = target: T1, Corticotropin-releasing factor receptor 2/Corticotropin-releasing factor-binding protein (Homo sapiens, UniProt P24387+Q13324); experiment: activators of CRF receptor 2 with binding protein – uHTS hits, confirmation (AID 602473); type: functional; conditions: read-out: EC50_Mean
# T1 sequence (Q13324 whole entry): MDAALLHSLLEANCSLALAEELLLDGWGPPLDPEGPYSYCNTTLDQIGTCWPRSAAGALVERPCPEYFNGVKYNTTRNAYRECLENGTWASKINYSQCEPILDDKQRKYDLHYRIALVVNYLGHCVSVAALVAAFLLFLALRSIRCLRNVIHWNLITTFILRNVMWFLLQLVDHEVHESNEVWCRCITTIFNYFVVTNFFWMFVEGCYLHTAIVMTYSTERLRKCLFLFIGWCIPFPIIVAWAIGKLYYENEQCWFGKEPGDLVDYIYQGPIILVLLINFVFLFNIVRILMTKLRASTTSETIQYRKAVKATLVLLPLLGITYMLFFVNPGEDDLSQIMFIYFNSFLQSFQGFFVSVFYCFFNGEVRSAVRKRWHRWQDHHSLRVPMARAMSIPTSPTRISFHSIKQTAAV
# T1 sequence (P24387 whole entry): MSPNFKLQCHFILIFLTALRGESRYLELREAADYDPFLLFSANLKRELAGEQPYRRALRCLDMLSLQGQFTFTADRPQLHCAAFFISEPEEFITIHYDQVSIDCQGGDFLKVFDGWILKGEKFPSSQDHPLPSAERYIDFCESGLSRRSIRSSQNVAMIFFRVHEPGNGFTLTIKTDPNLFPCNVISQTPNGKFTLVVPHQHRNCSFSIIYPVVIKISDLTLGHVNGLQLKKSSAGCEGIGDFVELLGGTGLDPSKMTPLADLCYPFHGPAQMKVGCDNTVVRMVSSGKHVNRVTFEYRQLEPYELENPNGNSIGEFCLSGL
# Leucine aminopeptidase = target: T2, Leucine aminopeptidase (Plasmodium falciparum 3D7, UniProt Q8IL11); experiment: P. falciparum M17LAP inhibitors, primary screen, biochemical, fluorogenic H-Leu-NHMec substrate, 1536-well (AID 1619); type: functional
# T2 sequence (Q8IL11 whole entry): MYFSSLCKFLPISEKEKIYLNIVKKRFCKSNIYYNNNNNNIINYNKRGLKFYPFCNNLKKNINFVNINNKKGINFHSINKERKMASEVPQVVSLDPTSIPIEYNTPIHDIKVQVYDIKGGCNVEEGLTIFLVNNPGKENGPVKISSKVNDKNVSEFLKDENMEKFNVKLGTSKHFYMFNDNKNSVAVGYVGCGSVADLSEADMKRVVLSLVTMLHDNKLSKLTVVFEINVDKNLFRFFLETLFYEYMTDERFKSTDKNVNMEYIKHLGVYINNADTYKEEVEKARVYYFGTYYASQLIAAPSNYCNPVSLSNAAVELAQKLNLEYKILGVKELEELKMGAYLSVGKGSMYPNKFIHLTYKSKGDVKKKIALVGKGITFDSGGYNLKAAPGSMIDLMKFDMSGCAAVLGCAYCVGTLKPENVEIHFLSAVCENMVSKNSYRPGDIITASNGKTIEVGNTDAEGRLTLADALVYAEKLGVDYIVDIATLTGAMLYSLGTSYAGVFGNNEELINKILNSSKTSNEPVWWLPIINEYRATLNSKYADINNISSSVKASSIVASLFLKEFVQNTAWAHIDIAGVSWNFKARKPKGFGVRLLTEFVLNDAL
# [2] = inhibitors of TRPM1-promoter reporter in SK-MEL-5 – cell-based, luciferase, dry powder, set 8, MITF inhibitor project, dose response (AID 624430); type: functional
# [3] = MITF Orthogonal Assay: SK-MEL-5 CTG Assay Measured in Cell-Based System Using Plate Reader - 2084-02_Inhibitor_Dose_DryPowder_Activity_Set7.; type: functional
# [4] = MITF: Counter assay: A375 proliferation Measured in Cell-Based System Using Plate Reader - 2084-03_Inhibitor_Dose_DryPowder_Activity_Set8.; type: functional; conditions: A-375
# [5] = viability of BHK-21 cells – cell-based, secondary screen, cytotoxicity control for flavivirus guanylyltransferase probe project (AID 624078); type: functional
# Caspase-6 = target: T3, Caspase-6 (Homo sapiens, UniProt P55212); experiment: inhibition of CASP6 peptide cleavage – biochemical, VEID-R110 fluorescence, cherry-pick, dose response (AID 720632)
# T3 sequence (P55212 whole entry): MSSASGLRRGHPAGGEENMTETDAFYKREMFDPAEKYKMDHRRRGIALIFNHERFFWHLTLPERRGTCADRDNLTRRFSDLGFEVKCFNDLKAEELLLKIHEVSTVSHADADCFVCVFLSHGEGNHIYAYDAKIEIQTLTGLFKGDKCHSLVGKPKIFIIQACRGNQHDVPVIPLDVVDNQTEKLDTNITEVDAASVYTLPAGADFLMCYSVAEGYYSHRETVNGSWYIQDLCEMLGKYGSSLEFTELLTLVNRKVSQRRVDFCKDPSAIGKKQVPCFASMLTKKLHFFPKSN
# Protein RecA = target: T4, Protein RecA (Mycobacterium tuberculosis, UniProt P9WHJ3); experiment: Fluorescence Cell-Free Homogeneous Dose Retest to Identify Inhibitors of RecA-Intein Splicing Activity. [Related pubchem assays (depositor defined):AID2097, AID2223, AID489010, AID492950]; type: functional
# T4 sequence (P9WHJ3 whole entry): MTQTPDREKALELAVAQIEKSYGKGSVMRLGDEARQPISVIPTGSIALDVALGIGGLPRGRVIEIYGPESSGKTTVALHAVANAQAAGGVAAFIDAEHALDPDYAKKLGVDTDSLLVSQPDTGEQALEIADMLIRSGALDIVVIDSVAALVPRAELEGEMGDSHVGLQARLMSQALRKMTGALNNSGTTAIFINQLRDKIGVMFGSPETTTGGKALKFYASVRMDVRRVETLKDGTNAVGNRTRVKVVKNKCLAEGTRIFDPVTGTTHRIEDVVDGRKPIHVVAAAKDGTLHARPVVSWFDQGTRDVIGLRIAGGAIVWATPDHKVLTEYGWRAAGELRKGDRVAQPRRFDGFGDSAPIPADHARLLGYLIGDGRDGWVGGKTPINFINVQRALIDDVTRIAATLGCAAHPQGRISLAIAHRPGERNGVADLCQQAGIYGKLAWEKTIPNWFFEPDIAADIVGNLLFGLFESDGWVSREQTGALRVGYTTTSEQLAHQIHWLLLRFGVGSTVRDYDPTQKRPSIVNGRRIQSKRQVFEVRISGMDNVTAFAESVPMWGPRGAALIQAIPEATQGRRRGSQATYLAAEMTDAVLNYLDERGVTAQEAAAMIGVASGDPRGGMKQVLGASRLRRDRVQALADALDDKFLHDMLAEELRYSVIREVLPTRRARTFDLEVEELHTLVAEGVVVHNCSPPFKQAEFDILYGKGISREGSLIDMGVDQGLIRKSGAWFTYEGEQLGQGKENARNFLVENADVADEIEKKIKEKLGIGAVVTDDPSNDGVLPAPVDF
# [6] = fluconazole-exposed Candida albicans growth modulators – fluorescence, retest, confirmation (AID 2467); type: functional, cell-based
# Caspase-7 = Caspase-7 (Homo sapiens, UniProt P55210); experiment: caspase-7 enzyme inhibition, selectivity check – biochemical, DEVD-R110 fluorescence, cherry-pick, selectivity assay for caspase-6 inhibitor project, dose response (AID 743295); type: functional
# [7] = target: T5, Zinc finger protein mex-5 (Caenorhabditis elegans, UniProt Q9XUB2); experiment: potency of MEX-5 RNA-binding blockers – biochemical, C. elegans, fluorescence polarization, dose response (AID 1960)
# T5 sequence (Q9XUB2 whole entry): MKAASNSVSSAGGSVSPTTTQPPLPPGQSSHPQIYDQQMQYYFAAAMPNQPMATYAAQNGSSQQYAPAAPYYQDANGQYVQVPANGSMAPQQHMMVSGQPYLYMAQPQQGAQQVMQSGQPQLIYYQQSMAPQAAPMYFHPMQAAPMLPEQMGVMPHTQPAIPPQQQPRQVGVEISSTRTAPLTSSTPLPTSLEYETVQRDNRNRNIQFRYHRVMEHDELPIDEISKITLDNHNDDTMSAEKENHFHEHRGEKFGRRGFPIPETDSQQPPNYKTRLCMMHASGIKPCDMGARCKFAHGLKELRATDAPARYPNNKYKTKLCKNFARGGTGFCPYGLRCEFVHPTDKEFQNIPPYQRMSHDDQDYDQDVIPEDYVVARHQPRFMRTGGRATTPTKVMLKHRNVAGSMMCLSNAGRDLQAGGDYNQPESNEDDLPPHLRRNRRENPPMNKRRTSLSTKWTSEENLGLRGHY
# [8] = target: Dual specificity tyrosine-phosphorylation-regulated kinase 1A (Rattus norvegicus, UniProt Q63470); type: biochemical, Homo sapiens
# [9] = target: T6, RNA-binding protein pos-1 (Caenorhabditis elegans, UniProt G5EF15); experiment: disruptors of C. elegans POS-1 RNA interaction – biochemical, fluorescence polarization, dose response (AID 1964);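 further: purified POS-1 fused to maltose binding protein made in E. coli; potency of compounds blocking POS-1 binding to fluorescent RNA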
# T6 sequence (G5EF15 whole entry): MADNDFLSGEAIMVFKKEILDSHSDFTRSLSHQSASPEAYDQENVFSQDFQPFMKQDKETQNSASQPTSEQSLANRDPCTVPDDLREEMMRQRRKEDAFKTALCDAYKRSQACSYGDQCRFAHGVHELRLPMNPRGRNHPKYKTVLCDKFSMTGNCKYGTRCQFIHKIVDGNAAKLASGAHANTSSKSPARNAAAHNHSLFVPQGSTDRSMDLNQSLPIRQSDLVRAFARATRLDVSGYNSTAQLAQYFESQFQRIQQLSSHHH
# [10] = microbe, parasite or virus in culture; type: functional; conditions: Mycobacterium tuberculosis
# Caspase-9 = Caspase-9 (Homo sapiens, UniProt P55211); experiment: inhibitors of purified CASP9 protease – biochemical, fluorescence, plate reader, cherry-picked samples, selectivity assay for caspase-6 inhibitor project, dose response (AID 743293)
# [11] = target: T7, Apoptotic protease-activating factor 1 (Homo sapiens, UniProt O14727); type: functional
# T7 sequence (O14727 whole entry): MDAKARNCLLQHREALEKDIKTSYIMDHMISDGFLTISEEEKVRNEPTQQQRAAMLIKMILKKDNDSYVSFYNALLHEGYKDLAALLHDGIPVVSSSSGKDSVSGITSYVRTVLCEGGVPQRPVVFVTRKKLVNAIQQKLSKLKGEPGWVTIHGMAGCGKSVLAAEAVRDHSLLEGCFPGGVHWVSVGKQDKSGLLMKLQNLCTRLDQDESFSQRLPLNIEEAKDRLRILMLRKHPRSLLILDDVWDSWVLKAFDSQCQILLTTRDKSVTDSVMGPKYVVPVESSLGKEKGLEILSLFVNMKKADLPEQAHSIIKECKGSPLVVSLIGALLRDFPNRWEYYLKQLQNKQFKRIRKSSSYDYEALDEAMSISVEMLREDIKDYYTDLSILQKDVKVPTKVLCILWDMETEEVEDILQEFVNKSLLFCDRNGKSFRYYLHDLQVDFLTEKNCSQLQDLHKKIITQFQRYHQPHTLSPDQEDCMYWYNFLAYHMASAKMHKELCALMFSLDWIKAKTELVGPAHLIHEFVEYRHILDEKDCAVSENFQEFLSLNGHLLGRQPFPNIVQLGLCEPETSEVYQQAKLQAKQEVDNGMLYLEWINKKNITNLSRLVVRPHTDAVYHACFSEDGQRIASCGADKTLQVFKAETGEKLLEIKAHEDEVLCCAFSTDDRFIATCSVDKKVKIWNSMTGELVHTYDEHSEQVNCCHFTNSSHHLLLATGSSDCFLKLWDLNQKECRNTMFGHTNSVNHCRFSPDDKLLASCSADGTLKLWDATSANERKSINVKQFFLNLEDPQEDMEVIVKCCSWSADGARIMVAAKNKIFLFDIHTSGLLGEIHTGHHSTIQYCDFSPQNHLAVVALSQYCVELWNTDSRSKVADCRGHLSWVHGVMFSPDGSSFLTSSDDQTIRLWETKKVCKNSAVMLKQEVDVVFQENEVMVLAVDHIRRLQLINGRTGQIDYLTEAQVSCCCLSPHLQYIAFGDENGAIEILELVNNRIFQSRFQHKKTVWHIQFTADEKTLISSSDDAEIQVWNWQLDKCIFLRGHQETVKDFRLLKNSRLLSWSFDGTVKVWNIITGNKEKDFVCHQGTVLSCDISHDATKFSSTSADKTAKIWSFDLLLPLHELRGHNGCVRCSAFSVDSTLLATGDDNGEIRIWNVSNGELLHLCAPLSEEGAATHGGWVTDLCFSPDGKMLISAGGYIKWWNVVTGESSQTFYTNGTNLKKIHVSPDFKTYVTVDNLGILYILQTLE
# [12] = NIH-3T3 fibroblast cytotoxicity, dose response, cytotoxicity control, cell-based, fluorescence, Alamar Blue, secondary assay (AID 2327); type: functional;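 further: NIH-3T3 mouse fibroblasts cultured with fluconazole at 8 µg/mL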
# [13] = general cell-killing toxicity readout – plate reader, dry powder samples, cytotoxicity control for PAX8 inhibitor project, dose response (AID 743021); type: functional, cell-based
# [14] = toxicity toward HepG2 hepatoma cells – cell-based, dry powder samples, cytotoxicity control, dose response (AID 720568); type: functional
# [15] = Luminescence Cell-Based Dose Retest to Confirm Inhibitors of Cancer Stem Cells. [Related pubchem assays (depositor defined):AID2717, AID2721]; type: functional; conditions: Homo sapiens
# Genome polyprotein, sequence (P29990 2492-3391 limits assumed): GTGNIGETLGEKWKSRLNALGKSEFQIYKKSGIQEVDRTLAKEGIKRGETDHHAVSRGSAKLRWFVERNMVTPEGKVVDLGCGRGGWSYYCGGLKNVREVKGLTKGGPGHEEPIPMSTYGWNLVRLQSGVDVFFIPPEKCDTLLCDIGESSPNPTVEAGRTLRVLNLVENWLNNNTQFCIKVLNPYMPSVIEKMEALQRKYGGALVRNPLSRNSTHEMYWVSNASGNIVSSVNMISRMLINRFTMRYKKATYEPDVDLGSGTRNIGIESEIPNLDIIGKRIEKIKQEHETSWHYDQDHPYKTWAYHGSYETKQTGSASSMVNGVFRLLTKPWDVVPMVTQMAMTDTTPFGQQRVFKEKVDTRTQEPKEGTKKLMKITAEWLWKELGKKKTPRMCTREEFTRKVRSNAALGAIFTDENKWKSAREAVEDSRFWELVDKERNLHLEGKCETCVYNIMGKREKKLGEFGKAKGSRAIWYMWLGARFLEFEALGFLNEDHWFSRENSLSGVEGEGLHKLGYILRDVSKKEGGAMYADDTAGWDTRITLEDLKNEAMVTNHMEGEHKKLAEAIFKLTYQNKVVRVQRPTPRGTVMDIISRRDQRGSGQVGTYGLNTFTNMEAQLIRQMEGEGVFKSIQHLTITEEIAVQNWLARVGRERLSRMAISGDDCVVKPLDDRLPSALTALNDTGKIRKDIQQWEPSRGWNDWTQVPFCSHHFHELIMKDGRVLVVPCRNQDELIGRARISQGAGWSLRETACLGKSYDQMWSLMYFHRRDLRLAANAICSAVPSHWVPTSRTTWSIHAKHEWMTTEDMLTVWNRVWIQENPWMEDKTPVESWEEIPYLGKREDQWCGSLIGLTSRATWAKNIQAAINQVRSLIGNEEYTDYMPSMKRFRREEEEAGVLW
# fMet-Leu-Phe receptor, sequence (P21462 whole entry): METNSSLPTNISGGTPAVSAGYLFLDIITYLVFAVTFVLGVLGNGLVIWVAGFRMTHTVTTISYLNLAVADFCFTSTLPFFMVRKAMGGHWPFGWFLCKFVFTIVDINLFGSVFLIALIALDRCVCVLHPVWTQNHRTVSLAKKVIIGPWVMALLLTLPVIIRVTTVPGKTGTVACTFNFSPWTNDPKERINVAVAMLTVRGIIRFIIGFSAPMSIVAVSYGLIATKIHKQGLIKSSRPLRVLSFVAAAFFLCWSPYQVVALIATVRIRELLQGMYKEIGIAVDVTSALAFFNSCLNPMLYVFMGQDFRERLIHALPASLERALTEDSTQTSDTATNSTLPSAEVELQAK
# Caspase-7, sequence (P55210 24-198 limits assumed): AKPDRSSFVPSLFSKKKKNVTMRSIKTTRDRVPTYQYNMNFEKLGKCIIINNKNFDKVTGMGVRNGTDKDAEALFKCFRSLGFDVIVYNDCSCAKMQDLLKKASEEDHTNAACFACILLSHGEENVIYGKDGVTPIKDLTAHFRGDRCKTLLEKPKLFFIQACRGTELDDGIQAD
# Caspase-7, sequence (P55210 207-303 limits assumed): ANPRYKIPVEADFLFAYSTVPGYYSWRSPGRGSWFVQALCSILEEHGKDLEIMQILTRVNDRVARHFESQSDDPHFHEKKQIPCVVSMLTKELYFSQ
# Caspase-9, sequence (P55211 1-315 limits assumed): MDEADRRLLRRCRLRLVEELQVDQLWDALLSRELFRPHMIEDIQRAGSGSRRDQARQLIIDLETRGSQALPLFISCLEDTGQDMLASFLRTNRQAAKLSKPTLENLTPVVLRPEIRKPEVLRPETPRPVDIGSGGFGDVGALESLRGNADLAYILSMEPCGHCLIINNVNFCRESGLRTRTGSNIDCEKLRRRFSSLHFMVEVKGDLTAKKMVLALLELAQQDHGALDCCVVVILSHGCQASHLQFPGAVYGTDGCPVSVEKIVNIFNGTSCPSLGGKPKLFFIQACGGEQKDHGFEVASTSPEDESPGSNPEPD
# Caspase-9, sequence (P55211 331-416 limits assumed): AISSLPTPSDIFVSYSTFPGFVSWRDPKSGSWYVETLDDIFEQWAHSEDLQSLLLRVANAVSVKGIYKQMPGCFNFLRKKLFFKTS
compound,measurement,setting,value
Cc1sc(NC(=O)C2CCCCC2C(=O)O)c(C(N)=O)c1-c1ccc(C(C)(C)C)cc1 (configuration not stated),IC50,Genome polyprotein,60.1 µM (active)
same,Ki,fMet-Leu-Phe receptor,41.2 µM (inactive)
same,EC50,[1],5.33 µM (active)
same,IC50,Leucine aminopeptidase,11.1 µM (active)
O=C1C=C(Nc2ccc(Cl)c(C(F)(F)F)c2)C(=O)c2ccccc21,AC50,[2],> 70 µM (inactive)
same,AC50,[3],0.754 µM (active)
same,AC50,[4],> 70 µM (inactive)
O=S(=O)(Nc1cc(Sc2nc[nH]n2)c(O)c2ccccc12)c1ccc(F)cc1,CC50,[5],14.3 µM (active)
CN1CCc2cc3c(c4c2C1Cc1ccccc1-4)OCO3 (configuration not stated) [ROEMERINE],AC50,Caspase-6,3.68 µM (active)
same,EC50,Protein RecA,0.0797 µM (active)
same,EC50,[6],> 38 µM (not active)
same,AC50,Caspase-7,1.51 µM (active)
same,EC50,[7],21.5 µM (inconclusive)
same,AC50,[8],2.54 µM (active)
same,EC50,[9],16.8 µM (active)
same,CC50,[10],> 40 µM (active)
same,AC50,Caspase-9,> 70 µM (inactive)
same,IC50,[11],10.2 µM (active)
same,EC50,[12],> 150 µM (inactive)
Nc1nc(=S)c2ncn([C@@H]3O[C@H](CO)[C@@H](O)[C@H]3O)c2[nH]1 [THIOGUANOSINE],AC50,[13],2.21 µM (active)
same,AC50,[14],6.38 µM (active)
same,AC50,[15],0.301 µM (active)
